What was measured:
[1] = biological target: T1, FimH (Escherichia coli, UniProt Q1R2J4); experiment: Hemagglutination inhibition (HAI) assay with UTI89 bacteria and guinea pig red blood cells; format: cell-based; conditions: HAI titer (EC>90): concentration reducing bacterial agglutination of guinea pig red blood cells by greater than 90%; note: ranges in brackets are in nM
T1 construct: endogenous in cells; host or cells: E. coli UTI89 (whole bacteria)
Description: “HAI titer or EC>90” is that concentration of the FimH inhibitor/antagonist which reduces the bacterial agglutination of guinea pig red blood cells by greater than 90%.
The activities of the Examples 1-34 compounds above as FimH antagonists/inhibitors were obtained by the following assay(s), and results are provided in Table 1. Results not provided mean that the activities have not yet been tested.
Hemagglutination Inhibition Assay (HAI)
The hemagglutination inhibition (HAI) assay was performed with UTI89 bacteria and guinea pig red blood cells, as previously described (S. J. Hultgren, W. R. Schwan, A. J. Schaeffer, J. L. Duncan Infect. Immun. 1986, 54, 613-620 and Jarvis, C.; Han, Z.; Kalas, V.; Klein, R.; Pinkner, J. S.; Ford, B.; Binkley, J.; Cusumano, C. K.; Cusumano, Z.; Mydock-McGrane, L.; Hultgren, S. J.; Janetka, J. W., Chem Med Chem 2016, 11, 367-373). Values not listed were not tested.

[2] = Rat pharmacokinetics after IV infusion and oral dose (AUC oral, % F, Ue % PO); format: in vivo, Male Wistar Han rats; conditions: for DNAUC oral h*uM: PO 5 mg/kg, dose normalized AUC in blood, n = 3; for %F: oral bioavailability, PO 5 mg/kg vs IV infusion 1 mg/kg
Excerpt: General Assays for Obtaining AUC Oral h*μm, % F, and Ue % PO Values
Male Wistar Han rats were purchased from Vital River Laboratory Animal Technology Co. Ltd (Beijing, China). The animals were approx. 6-8 weeks old with body weights of 200-300 g on the dosing date. The animals were housed in a 12-hour light/12-hour dark cycle environment and had free access to food and water. All animals were fed prior to dosing. Studies were approved by the Pharmaron Institutional Animal Care and Use Committee (IACUC).
Test article was administered as an intravenous infusion for 1 hour (1 mg/kg) at 5 mL/kg/h. After 48 h, animals received a single oral dose (5 mg/kg, free form) at a dose volume of 10 mL/kg, respectively. Blood samples were collected at various time points after IV infusion and PO administrations. Urine samples were collected at various time points after IV infusion and PO administrations (for some compounds).
Test article was dissolved in DMSO with vortexing and sonification to obtain a stock solution. An aliquot of the stock solution was mixed with 10% HP-β-CD in saline with vortexing to obtain a solution with concentration at 0.2 mg/mL of test article.
Test article was added into 1% Methyl Cellulose with vortexing and sonication to obtain a homogeneous suspension with concentration at 0.5 mg/mL of test article.
For IV infusion (1 mg/kg) administration, blood samples were collected from each animal at 0, 0.25, 0.5, 0.75, 1, 1.08, 1.25, 1.5, 1.75, 2, 3, 5, 8, 12, 24 hour post-dose.
For PO (5 mg/kg) administration, blood samples were collected from each animal at 0, 0.25, 0.5, 1, 1.5, 2, 3, 4, 6, 8, 12, 24 hour post-dose.
Blood samples (50 μL) were collected from each animal via jugular vein. These blood samples were placed into tubes containing K2EDTA. Whole blood was mixed with same volume of water and inverted several times. The blood samples were stored at −75±15° C. until analysis.
For IV infusion (1 mg/kg) administration, urine samples were collected from each animal at 0-4, 4-8, 8-12, 12-24 hour post-dose.
For PO (5 mg/kg) administration, urine samples were collected (for some compounds) from each animal at 0-4, 4-8, 8-12, 12-24 hour post-dose.
55 μL of standards, 55 μL of QC samples or 55 μL of unknown samples (50 μL of blood or urine with 5 μL 50% acetonitrile) were mixed to 200 μL of acetonitrile containing IS (dexamethasone) to precipitate proteins. Then the samples were vortexed for 30 sec. After centrifugation at 4° C., 4700 rpm for 30 min, and 5 μL of the supernatant was injected into the LC-MS/MS system for quantitative analysis.
Test article blood and urine concentrations for each animal following IV infusion at 1 mg/kg and PO at 5 mg/kg were used to calculate pharmacokinetic parameters by employing a non-compartmental analysis (Phoenix™ WinNonlin® 7.0). The linear trapezoidal algorithm was used for AUC calculation. • AUC oral h*μM: Area under the curve (AUC) of drug concentration in blood vs. time (units: h*μM) following oral administration • % F: Oral bioavailability (%) derived from the ratio of dose-normalized AUC following PO and IV administration • Ue % PO: Percentage of oral dose eliminated unchanged in urine or an estimater of that parameter generated from using the percentage of the iv dose eliminated in the urine times the oral bioavailability

Substance: (2R,3S,4R,5S,6R)-2-(Hydroxymethyl)-6-((R)-1-(2-methyl-4-(5-(trifluoromethyl)pyrazin-2-yl)phenyl)allyl)tetrahydro-2H-pyran-3,4,5-triol [Example 6]
- HAI [1]: “+++” (50-200)
- DNAUC oral h*uM [2]: “+” (<0.5 h · μM)
- %F [2]: “++” (10 ≤ x ≤ 30%)

Substance: (2R,3S,4R,5S,6R)-2-(Hydroxymethyl)-6-((R)-1-(2-methyl-4-(5-(trifluoromethyl)pyrazin-2-yl)phenyl)propyl)tetrahydro-2H-pyran-3,4,5-triol [Example 5]
- HAI [1]: “+++” (50-200)
- DNAUC oral h*uM [2]: “+” (<0.5 h · μM)
- %F [2]: “++” (10 ≤ x ≤ 30%)
- Ue% po ([2]; percentage of oral dose eliminated unchanged in urine (or estimate from iv urine fraction times oral bioavailability)): “++” (0.5 ≤ x ≤ 5%)
